Source: US4939156A (priority 1987, dated 1990)
Converted amounts (≈) assume the structure as drawn.

Columns and labels:
[1] = system: Vaccinia virus Lister strain; assay: organism not typed; type: cell-based; settings: for IC50: 48 h, read-out: Inhibitory Concentration (IC50) which inhibited by 50% the denaturation of Virus No. 4 infested HeLa-Y cell; for Quotient of minimum denaturation concentration divided by IC50, Virus No. 4: figures in brackets, HeLa-Y cell, Vaccinia virus, 2880 min
in vitro [2] = settings: monkey, vero cells
[3] = system: Herpes simplex virus (HSV) Type 2 196 strain; assay: Antiviral activity, Virus No. 5 infested Vero cell; type: cell-based; settings: for IC50: 48 h, HSV Type 2, Vero cell, read-out: Inhibitory Concentration (IC50) which inhibited by 50% the denaturation of Virus No. 5 infested Vello cell; for Quotient of minimum denaturation concentration divided by IC50, Virus No. 5: figures in brackets, Vero cell, HSV Type 2
[4] = system: Newcastle disease virus (NDV) Miyadera strain; assay: microbe, parasite or virus in culture; type: cell-based; settings: for IC50: avian paramyxovirus 1, 48 h, read-out: Inhibitory Concentration (IC50) which inhibited by 50% the denaturation of Virus No. 2 infested HeLa-Y cell; for Quotient of minimum denaturation concentration divided by IC50, Virus No. 2: figures in brackets, HeLa-Y cell, NDV, 2880 min
[5] = system: Influenza virus A/PR/8/34 strain; assay: Antiviral activity, Virus No. 1 infested MDCK cell; type: cell-based; settings: for IC50: PR/8, MDCK, 48 h, read-out: Inhibitory Concentration (IC50) which inhibited by 50% the denaturation of Virus No. 1 infested MDCK cell; for Quotient of minimum denaturation concentration divided by IC50, Virus No. 1: figures in brackets, MDCK cell, Influenza virus, 2880 min
[6] = system: vesicular stomatitis virus (VSV) New Jersey strain; assay: microbe, parasite or virus in culture; type: cell-based; settings: for IC50: Vesicular stomatitis virus, L929, 48 h, read-out: Inhibitory Concentration (IC50) which inhibited by 50% the denaturation of Virus No. 3 infested L-929 cell; for Quotient of minimum denaturation concentration divided by IC50, Virus No. 3: figures in brackets, L-929 cell, VSV, 2880 min
[7] = system: human premyelocytic leukemia cells (HL-60); assay: NBT-reducing ability (differentiation) of HL-60 cells after treatment with test compound; type: cell-based; settings: 0.1% NBT, 37° C., 20 minutes
Description: (§1) The human premyelocytic elukemia cells (HL-60 cell) are characterized by the ability to respond to pharmacological inducers of differentiation and can produce the normal granulocytes when they have been differentiated, as described in the "Blood" Vol. 54, No. 3, 713-733 (1979).
(§2) Thus, firstly the cell differentiation-inducing activity of the compound was assayed by the following procedure described in said "Blood". Namely, HL-60 cells were incubated by passing successively through RPMI 1640 media supplemented with 10% FCS (fetal calf serum), followed by adding the test compound at varying concentrations to aliquots of the culture of the HL-60 cells at the logarithmic phase of growth. The HL-60 cells thus incubated were further incubated in the presence of the test compound for 6 days and subsequently fixed to slide glasses. The fixed HL-60 cells were stained with May-Gruenwald-Giemsa's reagent and the morphology of the nuclei in the stained cells was examined to judge which of the cells has been differentiated into the normal granulocytes. Then, the number of the HL-60 cells which had propagated were counted.
Secondly, the another aliquot of the culture of the HL-60 cells which were incubated in the above procedure in the presence of the test compound at its evaluated "IC50 " concentration was centrifuged to collect the cells, which were then diluted with a volume of RPMI 1640 medium supplemented with 10% FCS, to provide a given concentration of the cells. Subsequently, the cells which were diluted with said medium were added and mixed with 0.1% of NBT and then incubated at 37° C. for 20 minutes. The number of the cells which stained black color owing to the involved reduction of NBT and which could be judged to have the ability to reduce NBT was counted.

in vitro [8] = settings: dog, mdck
in vitro [9] = settings: human, hela-y cells
in vitro [10] = settings: mouse, l-929 cells
[11] = system: human premyelocytic leukemia cells (HL-60); assay: 50% inhibition of propagation of undifferentiated human premyelocytic leukemia HL-60 cells; type: cell-based; settings: 144 h, 6 days incubation, read-out: Activity of test compound to inhibit by 50% the undifferentiated propagation of HL-60 cells (IC50)
Description: as §1, §2
As said "IC50 " concentration of the test compound was assumed such concentration of the test compound at which the counted number of the HL-60 cells having propagated was reduced by 50%, as compared to that counted in the control tests where the test compound was not used.

mice = assay: Acute toxicity in mice given i.p.; type: in vivo; settings: twice a day, 4 days, counted at 5th day
Description: For estimation of toxicity of the new compounds of this invention for mammalian animals, acute toxicity of the TI-27 Substance of Example 1 as a representative example was tested by intraperitoneal administration of a suspension of 25 mg/ml of TI-27 substance in a 0.5% aqueous solution of carboxymethyl cellulose (CMC) to mice (five in each group). The TI-27 substance was given to mice twice a day at a unit dosage of 5 mg, 1.25 mg, 0.313 mg, 0.078 mg or 0.02 mg per mouse for consecutive 4 days, totally 8 times. The number of the surviving mice which tolerated the administration of TI-27 Substance was counted at the 5th day of the tests.

Structure (SMILES) | IC50 [1] [µg/mL] | Quotient of minimum denaturation concentration divided by IC50, Virus No. 4 [1] | MCC at 48 h (in vitro [2]) [µg/mL] | IC50 [3] [µg/mL] | Quotient of minimum denaturation concentration divided by IC50, Virus No. 5 [3] | IC50 [4] [µg/mL] | Quotient of minimum denaturation concentration divided by IC50, Virus No. 2 [4] | IC50 [5] [µg/mL] | Quotient of minimum denaturation concentration divided by IC50, Virus No. 1 [5] | IC50 [6] [µg/mL] | Quotient of minimum denaturation concentration divided by IC50, Virus No. 3 [6] | Percent of the number of the cells showing the NBT-reducing ability after treatment with test compound at IC50 concentration [7] [%] | MCC at 48 h (in vitro [8]) [µg/mL] | MCC at 48 h (in vitro [9]) [µg/mL] | MCC at 48 h (in vitro [10]) [µg/mL] | IC50 [11] [µg/mL] | further results
CCN1C(=O)[C@@H]2[C@H](N(CC)C1=O)C(C)(C)C2(C)C (relative stereo) [TI-16 Substance, 2,4-diethyl-7,7,8,8-tetramethyl-cis-2,4-diaza-bicyclo{4.2.0}octane-3,5-dione] | > 250 | < 1.0 | 500 | 375 (≈ 1490 µM) | 1.33 | > 250 | < 1.0 | 375 (≈ 1490 µM) | 2.67 | > 500 | < 1.0 | 69 | 1000 | 250 | 500 | 17 (≈ 67.4 µM) | 
CN1C(=O)[C@@H]2[C@H](N(C)C1=O)C(C)(C)C2(C)C (relative stereo) [TI-27 Substance, 2,4,7,7,8,8-hexamethyl-cis-2,4-diaza-bicyclo{4.2.0}octane-3,5-dione] | > 250 | < 1.0 | 500 | > 500 | < 1.0 | > 250 | < 1.0 | 188 (≈ 838 µM) | 5.32 | > 500 | < 1.0 | 51 | 1000 | 250 | 250 | 35 (≈ 156 µM) | Number of surviving mice/number of mice tested (mice; 0.02 mg/mouse i.p.): 5/5; Number of surviving mice/number of mice tested (mice; 0.078 mg/mouse i.p.): 5/5; Number of surviving mice/number of mice tested (mice; 0.313 mg/mouse i.p.): 5/5; Number of surviving mice/number of mice tested (mice; 1.25 mg/mouse i.p.): 1/5; Number of surviving mice/number of mice tested (mice; 5 mg/mouse i.p.): 0/5
Nc1nc2c(ncn2COCCO)c(=O)[nH]1 [Acyclovir, reference compound] |  |  | > 1000 | 1.17 (≈ 5.2 µM) | > 855 |  |  |  |  |  |  |  |  |  |  |  | 
NC12CC3CC(CC(C3)C1)C2 [Amantadine, reference compound] |  |  |  |  |  |  |  | 50 (≈ 331 µM) | 5.0 |  |  |  | 250 |  |  |  | 
CC1(C)O[C@@H]2[C@H](O1)[C@@H](CO)O[C@H]2N1C(=O)NC(=O)C2C1C(C)(C)C2(C)C (stereo partly drawn) [TI-28 Substance, 7,7,8,8-tetramethyl-2-(2',3'-isopropylidene-ribofuranosyl)-cis-2,4-diaza-bicyclo{4.2.0}octane-3,5-dione] | > 1000 |  | > 1000 | > 1000 | < 1.0 | > 1000 |  | 750 (≈ 2040 µM) | 1.33 | 1000 (≈ 2710 µM) | 1.0 | 37 | 1000 | > 1000 | > 1000 | 62.5 (≈ 170 µM) | 
CN1C(=O)NC2C(C)(C)C(C)(C)C2(F)C1=O (stereo not shown) [TI-61 Substance, 6-fluoro-4,7,7,8,8-pentamethyl-2,4-diaza-bicyclo{4.2.0}octane-3,5-dione] | > 125 | < 1.00 | 125 | 93.8 (≈ 411 µM) | 1.33 | > 125 | < 1.00 | 188 (≈ 824 µM) | 1.33 | 93.8 (≈ 411 µM) | 1.33 | 18 | 250 | 125 | 125 | 39 (≈ 171 µM) | 
CCN1C(=O)NC(=O)C2(F)C1C(C)(C)C2(C)C (stereo not shown) [TI-62 Substance, 2-ethyl-6-fluoro-7,7,8,8-tetramethyl-2,4-diaza-bicyclo{4.3.0}octane-3,5-dione] | > 250 | < 1.00 | 500 | > 250 | < 2.00 | > 250 | < 1.00 | > 500 | < 2.00 | > 125 | < 2.00 | 34 | 1000 | 250 | 250 | 9 (≈ 37.1 µM) | 
CCN1C(=O)N(CC)C2C(C)(C)C(C)(C)C2(F)C1=O (stereo not shown) [TI-65 Substance, 2,4-diethyl-6-fluoro-7,7,8,8-tetramethyl-2,4-diaza-bicyclo{4.2.0}octane-3,5-dione] | > 250 | < 1.00 | 500 | 188 (≈ 695 µM) | 2.66 | > 250 | < 1.00 | 375 (≈ 1390 µM) | 2.67 | > 125 | < 2.00 | 20 | 1000 | 250 | 250 | 36 (≈ 133 µM) | 
CC1(C)C2N(Cc3ccccc3)C(=O)N(Cc3ccccc3)C(=O)C2(F)C1(C)C (stereo not shown) [TI-66 Substance, 2,4-dibenzyl-6-fluoro-7,7,8,8-tetramethyl-2,4-diaza-bicyclo{4.2.0}octane-3,5-dione] | > 25 | < 0.62 | 62.5 | > 100 | < 0.63 | > 25 | < 0.62 | > 200 | < 1.25 | 18.8 (≈ 47.7 µM) | 0.83 | 65 | 250 | 15.6 | 15.6 | 7 (≈ 17.7 µM) | 
